Assay results taken from US10231908B2, “Method of reducing hair loss associated with chemotherapy” (Galderma S.A., priority 2015, dated 2019).
Entries after “also recorded” stand apart in the source; their conditions may differ. Counter-ions that a name gives are not always drawn.

Key:
[1] = test system: cyclophosphamide-induced alopecia in C57B16 mice; experiment: Cyclophosphamide-induced alopecia in mice after anagen induction by depilation; type: in vivo; conditions: for % of alopecia versus control: read on day 15
[2] = epinephrine 450 mM topical plus CYP at day 9

SMILES: Brc1c(NC2=NCCN2)ccc2nccnc12 [Brimonidine, Brimonidine tartrate]
- % of alopecia versus control ([1]; brimonidine 35 mM (1%) topical, 100 μL, at t-2 hours and repeated 2 hours later, CYP 120 mg/kg i.p. at day 9): prevents alopecia; also recorded: prevented hair loss
- hair shedding in dorsal depilated area (representative pictures) ([1]; topical brimonidine, CYP-injected mice, day 15 after depilation): more hairs did not shed

SMILES: CNC[C@H](O)c1ccc(O)c(O)c1 [Epinephrine, Epinephrine hydrochloride]
- body weight of mice [2]: temporarily decreased the body weight
- % of alopecia versus control ([1]; epinephrine 450 mM topical, 20 min before and 10, 40 and 60 min after CYP 120 mg/kg i.p. at day 9, hydrochloride): worsened it; also recorded: worsened alopecia
